Tests used:
macrophages J77468 = test: Toxicity for J77468 macrophages (MTT reduction); format: cell-based, murine; conditions: for % de viabilité cellulaire*: 18 h, MTT
Method: La lignée continue de macrophages J77468 d'origine murine provient d'un clonage de la souche J774 ATCC, et est cultivée en milieu RPMI 1640 additionné de glutamine 2 mM, 10% de sérum de veau foetal (décomplémenté 60 min. à 56°) et de 10 mM Hepes (pH 7.2). Une suspension de 5 10^6 cellules/ml sont infectées avec une culture de Candida tropicalis (5 10^5 levures/ml) provenant d'une culture de nuit dans de la casitone. Le milieu d'infection utilisé est du RPMI contenant 2 % de sérum de veau nouveau-né et 10 mM Hepes (pH 7.2).
La viabilité des macrophages J77468 cultivés dans du milieu contenant l'agent antifongique encapsulé ou non dans les LDL figure au Tableau 5. K et K01 sont toxiques aux concentrations nécessaires pour réduire de 50 % l'infection intracellulaire (C1250) contrairement au LDL-K01 pour lequel aucune toxicité n'a pu être détectée.

[1] = Stability of reconstituted LDL in presence of plasma (KBr gradient fractionation); format: in vitro ADME; conditions: 1 ml de plasma humain, trois heures à 37° C
Method: Dans un milieu biologique aussi complexe que le plasma, de nombreux constituants peuvent, à priori, inte) ragir avec les LDL rec. CT040013 et provoquer leur déstabilisation ou entraîner une libération du principe actif incorporé. Aussi, une première étude a été entreprise pour essayerde caractériser le comportement des LDL rec. CT040013 lorsque ces dernières sont mises en présence de plasma.
Deux préparations ont été testées : les LDL rec. O.CHOL [^14C] et les LDL rec" CT040013. 500 µl de ces différentes préparations sont incubées avec 1 ml de plasma humain pendant trois heures à 37° C. Au terme de cette incubation, les échantillons sont fractionnés par ultracentrifugation sur gradient discontinu en KBr. Par aspiration, on récupère les fractions correspondantes aux différentes densités, et sur chacune de celle-ci, le cholestérol, les phospholipides, l'oléate de cholestérol [^14C] sont dosés (figure 15). Le profil en cholestérol total et en phospholipides est identique dans les deux gradients. On y distingue trois pics correspondants aux trois classes de lipoprotéines, par ordre décroissant de densité : HDL, LDL, et VLDL.

L. mexicana amazonentis = test: In vitro antileishmanial model: intracellular amastigotes in peritoneal macrophages; format: cell-based; conditions: for Nombre d'amastigotes (b) (% des contrôles): 35°, mean (SD) of 4
Method: Le modèle in vitro utilisé, consiste à développer les formes intracellulaires (amastigotes) de Leishmania mexicana anazonentis dans des macrophages péritonéaux de souris Balb/c injectés initialement par les formes promastigotes.
La culture de macrophages est obtenue à partir des cellules de la cavité péritonéale.
Brièvement, la cavité péritonéale est lavée plusieurs fois avec du milieu RPMI 1640 contenant de la pénicilline (100 U/ml) et de la streptomycine (100 µg/ml) additionné de glutamine (2 mM) et de 20 % de sérum de veau foetal décomplémenté à la chaleur. Ce milieu constitue le milieu de culture complet. Après centrifugation de la suspension cellulaire ainsi obtenue, les cellules sont resuspendues dans le même milieu, puis incubées 1 heure à 37° C en présence de 5 % C02 dans des boîtes de Pétri. Les macrophages adhérents sont ensuite lavés plusieurs fois, détachés de leur support puis comptés. Un volume cellulaire contenant 2,5 x 10^5 macrophages est ajouté dans chaque puits (16 mm de diamètre) des boîtes de culture contenant chacun une lamelle en verre. Les cellules sont ainsi cultivées 3 jours à 37°C. Avant d'être utilisées, les cultures sont lavées 2 fois pour retirer les cellules non adhérentes. Dans ces conditions, les cultures contiennent 1,5 à 2,0 x 10^5 macrophages.
La souche de L. mexicana amazonentis est maintenue sous forme promastigote à 27° C par passage successif dans du milieu Schneider Drosophila contenant 100 µg/ml de gentamycine, 2 mM de glutamine, 5 gg/ml d'hémine et additionné de 20 % de sérum de veau foetal décomplémenté.
Une suspension de promastigotes en phase stationnaire est ajoutée à chaque culture de macrophages à raison de 4 parasites par cellule. Les cultures sont incubées à 34,5°-35°C (5 % C02-95 % air) pendant 7 heures. Les cultures infectées sont lavées avec du milieu sans sérum jusqu'à ce qu'il y ait moins de un parasite par 20 macrophages. Une culture (1 boîte à 4 puits) est fixée et colorée au May-Grûnwald Giemsa pour contrôler l'infection (jour 0). S'il y a moins de 50 organismes intracellulaires par 100 macrophages, l'infection est considérée trop faible pour une interprétation correcte des résultats. 24 heures après l'infection, le milieu de culture est remplacé par du milieu frais contenant ou non un agent thérapeutique. Nous avons choisi d'utiliser le dérivé oléoyl-kétoconazole seul ou incorporé à des LSL natives ou acétylées. Le milieu (± l'agent thérapeutique) est renouvelé au jour 3. Au jour 6, des cultures de macrophages Infectés sont fixées, colorées, séchées, la lamelle de verre est ensuite montée sur une lame pour l'observation microscopique.
Le nombre d'amastigotes contenu dans 100 à 200 macrophages est déterminé pour chaque culture. Le nombre moyen d'organismes par 100 macrophages au jour 6 dans les cultures traitées est exprimé en pourcentage du nombre moyen d'organismes par 100 macrophages dans les cultures contrôles au jour 6 (% de survie). Les cultures contrôles contiennent en moyenne 300 à 400 parasites par 100 macrophages; 60 % en moyenne des macrophages sont infectés et contiennent de 5 à 7 amastigotes.

[2] = Leishmania mexicana, Peritoneal macrophage, read-out: Activité (c) (% inhibition)

CCCCCCCC/C=C\CCCCCCCC(=O)N1CCN(c2ccc(OC[C@H]3CO[C@](Cn4ccnc4)(c4ccc(Cl)cc4Cl)O3)cc2)CC1 [KO1]
toxicité aux concentrations nécessaires pour réduire de 50 % l'infection intracellulaire (macrophages J77468): toxiques | % de viabilité cellulaire* (macrophages J77468; Concentration 0,78 µM): 67,72% | % de viabilité cellulaire* (macrophages J77468; Concentration 1,56 µM): 67,72% | % de viabilité cellulaire* (macrophages J77468; Concentration 3,13 µM): 67,36% | % de viabilité cellulaire* (macrophages J77468; Concentration 6,25 µM): 60,70% | % de viabilité cellulaire* (macrophages J77468; Concentration 12,50 µM): 69,47% | % de viabilité cellulaire* (macrophages J77468; Concentration 25,00 µM): 67,71% | % de viabilité cellulaire* (macrophages J77468; Concentration 50,00 µM): 71,22% | % de viabilité cellulaire* (macrophages J77468; Concentration 100,00 µM, versus untreated control): 38,94% | association à l'albumine [1]: il n'a pas été possible de mettre en évidence une association | relarguage / redistribution de la molécule incorporée en présence de plasma [1]: n'est pas pris en charge par ces protéines de transfert | inhibition at 0.5 µg/mL (L. mexicana amazonentis; [2]): 28% | inhibition at 1 µg/mL (L. mexicana amazonentis; [2]): 43% | inhibition at 1.4 µg/mL (L. mexicana amazonentis; [2]): 50% | inhibition at 2 µg/mL (L. mexicana amazonentis; [2]): 56% | inhibition at 2.5 µg/mL (L. mexicana amazonentis; [2]): 64% | inhibition at 11 µg/mL (L. mexicana amazonentis; [2]): 90% | index thérapeutique (rapport de ED50 kéto sur ED50 K01) (L. mexicana amazonentis; compared with kétoconazole): 9 | Nombre d'amastigotes (b) (% des contrôles) (L. mexicana amazonentis; dose 0,5 µg/ml, 6 jours): 72 (6) % | Nombre d'amastigotes (b) (% des contrôles) (L. mexicana amazonentis; dose 1,0 µg/ml, 6 jours): 57 (3) % | Nombre d'amastigotes (b) (% des contrôles) (L. mexicana amazonentis; dose 1,4 µg/ml, 6 jours): 50 (4) % | Nombre d'amastigotes (b) (% des contrôles) (L. mexicana amazonentis; dose 2,0 µg/ml, 6 jours): 44 (2) % | Nombre d'amastigotes (b) (% des contrôles) (L. mexicana amazonentis; dose 2,5 µg/ml, 6 jours): 36 (6) % | Nombre d'amastigotes (b) (% des contrôles) (L. mexicana amazonentis; dose 11,0 µg/ml, 6 jours): 10 (4) % | ED50 (50 % d'inhibition) (L. mexicana amazonentis; intracellular amastigotes, 6 jours): 1,4 µg KO1.ml

— patent EP0277849A1, “Incorporation of one or more lipophilic, active principles into lipoproteins, lipoproteins obtained and pharmaceutical compositions containing them” (IRE-CELLTARG S.A., priority 1987, dated 1988)
